The conditions of data set [1]: background statement; cited from earlier work.
Data set [2] can be described thus: Absorption spectrum in CH2Cl2. It counts as physicochemical. On the procedure: (§1) An absorption spectrum (absorption peak wavelength λmax, molar absorbance coefficient c) of Compound 1 thus synthesized was measured. Further, a HOMO level (ionization potential) of Compound 1 was measured by photoelectric spectroscopy in the atmosphere (SC-2).
(§2) Note that, for the result of pentacene shown in Table 2, the absorption spectrum described in Reference Document 1 (J. Am. Chem. Soc. 2007, 129, 2225) was used, and the HOMO level described in Reference Document 2 (Jpn. J. Appl. Phys. 2005, 44, 561) was used.

Data set [3] in a line: HOMO level (ionization potential) by photoelectric spectroscopy in the atmosphere. It counts as physicochemical. On the procedure:
as §1, §2

Data set [4] can be described thus: Stability against aerial oxidation (absorption intensity of solution in air-saturated methylene chloride, dark place). Format: physicochemical. The conditions noted are these: immediately after preparation to 1 week. As to the method:
Next, stability of Compound 1 against aerial oxidation was evaluated. A solution of Compound 1 was prepared with the use of air-saturated methylene chloride as a solvent, and was left in a dark place. The absorption spectrum was measured during a time period from immediately after the preparation to 1 week after the preparation, so as to trace how an absorption intensity of the solution of Compound 1 was changed during the above time period (see Reference Document 1 described above).

The next data set can be described thus: Solubility in solvent. It counts as physicochemical.
The nature of data set [5]: Properties of the isolated crystal in the atmosphere. It counts as physicochemical. As to conditions: yellow crystal. On the procedure: Into an anhydrous DMF (15 ml) solution of Intermediate 1 (0.42 g, 1.5 mmol), sodium hydride (60%, 0.13 g, 3.1 mmol) was added little by little. The resultant solution was left at room temperature for 2 hours. After that, 1-bromohexane (0.5 g, 3 mmol) was added to the solution, and the solution was agitated for further 2 hours. A solvent was removed away under reduced pressure, and a residue was extracted with methylene chloride. The residue from which the solvent was distilled away was recrystallized from hexane so that 0.28 g of Compound 1 was obtained (yield: 41%).

The conditions of data set [6]: from Reference Document 1; cited from earlier work.
For data set [7] the following is noted: from Reference Document 2; cited from earlier work.
The conditions of data set [8]: same condition, left for 24 hours, Reference Document 1; cited from earlier work.

Where two headings read alike, the source gives them in different places.

As for `c1ccc2cc3c(cc2c1)Nc1cc2ccccc2cc1N3` [DHDAP, dihydrodiazapentacene], the Solubility result in [1] is reported as “low in solubility”.
For the compound `CCCCCCN1c2cc3ccccc3cc2N(CCCCCC)c2cc3ccccc3cc21` [Compound 1], in [2] (in CH2CL2), the “Absorption spectrum λ max” value was determined as 422 nm. In data set [2] (in CH2CL2, at λ max), the “Absorption spectrum log ε” value is “(log ε = 4.58)”. In addition, in data set [3], the “Photoelectric spectroscopy HOMO” value was −4.89 eV. Also, in data set [4], the “Change in absorption intensity of solution” value is on record as “no change in absorption intensity”. In “Solubility in solvent”, the “Resolvability with respect to a solvent” value is “excellent resolvability”. Further, in data set [5], the Hydroscopic property entry is “no hydroscopic property” and the “Stability in the atmosphere” value is given as “stable compound without any deterioration in the atmosphere”.
`c1ccc2cc3cc4cc5ccccc5cc4cc3cc2c1` [Pentacene, pentacene]: in data set [6], the “Absorption spectrum λ max” value is recorded as 575 nm. Besides, the “Photoelectric spectroscopy HOMO” value in data set [7] is listed as −5.0 eV. For the same compound, in data set [8], the “Change in absorption intensity of solution” value is “absorption intensity was substantially eliminated”.

The values above are taken from patent publication US20120146009A1, “NOVEL COMPOUND, FIELD-EFFECTIVE TRANSISTOR, SOLAR CELL, METHOD FOR PRODUCING SAID COMPOUND, FIELD-EFFECTIVE TRANSISTOR, AND SOLAR CELL, COMPOSITION FOR ORGANIC SEMICONDUCTOR LAYER, AND COMPOSITION FOR P-TYPE SEMICONDUCTOR LAYER” (Sharp Kabushiki Kaisha, priority 2009, published 2012).
